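Protocol summary: plate cells (96-well), add compound at 5 concentrations, incubate 48 h, interpolate endpoints linearly. Abbreviation: GI50, concentration required for 50% inhibition of growth.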 Active and inactive are the calls of the source. Cut-off read from the data, not from the text of the source: active = GI50 up to about 1.1 µM and inactive = higher.
Columns and labels:
Experiment in all cases: NCI anticancer screen, dose series, 48 h
NCI-H460 = system: NCI-H460
U-251 = system: U-251
LOX IMVI = system: LOX IMVI
SK-MEL-5 = system: SK-MEL-5
SNB-75 = system: SNB-75
HCC 2998 = system: HCC 2998
HL-60 = system: HL-60
HCT-15 = system: HCT-15
M14 = system: M14
SF-539 = system: SF-539
SK-OV-3 = system: SK-OV-3
IGROV-1 = system: IGROV-1
UACC-257 = system: UACC-257
OVCAR-5 = system: OVCAR-5
OVCAR-3 = system: OVCAR-3
SN12C = system: SN12C
Hs-578T = system: Hs-578T
Malme-3M = system: Malme-3M
RPMI-8226 = system: RPMI-8226
NCI-H522 = system: NCI-H522
NCI-H23 = system: NCI-H23
SNB-19 = system: SNB-19
T47D = system: T47D
TK-10 = system: TK-10
ACHN = system: ACHN
COLO 205 = system: COLO 205
SF-268 = system: SF-268
MDA-MB-231 = system: MDA-MB-231
NCI-H226 = system: NCI-H226
EKVX = system: EKVX
K562 = system: K562
HT-29 = system: HT-29
UO-31 = system: UO-31
MCF7 = system: MCF7
NCI/ADR-RES = system: NCI/ADR-RES
KM12 = system: KM12
RXF 393 = system: RXF 393
PC-3 = system: PC-3
UACC-62 = system: UACC-62
SK-MEL-28 = system: SK-MEL-28
SR = system: SR
OVCAR-4 = system: OVCAR-4
HOP-92 = system: HOP-92
HCT-116 = system: HCT-116
MOLT-4 = system: MOLT-4
SK-MEL-2 = system: SK-MEL-2
CAKI-1 = system: CAKI-1
BT-549 = system: BT-549
SF-295 = system: SF-295
DU-145 = system: DU-145
MDA-MB-435 = system: MDA-MB-435
SW-620 = system: SW-620
OVCAR-8 = system: OVCAR-8
A549 = system: A549
786-0 = system: 786-0
MDA-N = system: MDA-N
HOP-62 = system: HOP-62
CCRF-CEM = system: CCRF-CEM

**Q.** With `CC(C)(C)OC(=O)N1C(OP(=O)(Oc2ccccc2)Oc2ccccc2)=CSc2ccccc21` as the compound, how does the GI50 (NCI-H460) read?
**A.** 29.1 µM (inactive)

**Q.** What about the GI50 (U-251) of the same compound?
**A.** 32.9 µM (inactive)

**Q.** And the GI50 (LOX IMVI)?
**A.** 47.2 µM (inactive)

**Q.** And the GI50 (SK-MEL-5)?
**A.** 28.2 µM (inactive)

**Q.** What about the GI50 (SNB-75) of the same compound?
**A.** 31 µM (inactive)

**Q.** What about the GI50 (HCC 2998) of the same compound?
**A.** 39.4 µM (inactive)

**Q.** What about the GI50 (HL-60) of the same compound?
**A.** 20.1 µM (inactive)

**Q.** What about the GI50 (HCT-15) of the same compound?
**A.** 37.5 µM

**Q.** What about the GI50 (M14) of the same compound?
**A.** 25.8 µM (inactive)

**Q.** And the GI50 (SF-539)?
**A.** 72.8 µM (inactive)

**Q.** And the GI50 (SK-OV-3)?
**A.** 57.8 µM (inactive)

**Q.** And the GI50 (IGROV-1)?
**A.** 38.1 µM (inactive)

**Q.** What about the GI50 (UACC-257) of the same compound?
**A.** 31.6 µM (inactive)

**Q.** And the GI50 (OVCAR-5)?
**A.** 68.9 µM (inactive)

**Q.** And the GI50 (OVCAR-3)?
**A.** 31.3 µM (inactive)

**Q.** What about the GI50 (SN12C) of the same compound?
**A.** 56.6 µM (inactive)

**Q.** What about the GI50 (Hs-578T) of the same compound?
**A.** 45.8 µM (inactive)

**Q.** What about the GI50 (Malme-3M) of the same compound?
**A.** 27.7 µM (inactive)

**Q.** And the GI50 (RPMI-8226)?
**A.** 17.8 µM (inactive)

**Q.** What about the GI50 (NCI-H522) of the same compound?
**A.** 27.1 µM (inactive)

**Q.** What about the GI50 (NCI-H23) of the same compound?
**A.** 37.4 µM (inactive)

**Q.** What about the GI50 (SNB-19) of the same compound?
**A.** 43.2 µM (inactive)

**Q.** What about the GI50 (T47D) of the same compound?
**A.** 27.4 µM (inactive)

**Q.** And the GI50 (TK-10)?
**A.** 35 µM (inactive)

**Q.** What about the GI50 (ACHN) of the same compound?
**A.** 27.5 µM (inactive)

**Q.** What about the GI50 (COLO 205) of the same compound?
**A.** 20.4 µM (inactive)

**Q.** And the GI50 (SF-268)?
**A.** 59 µM (inactive)

**Q.** What about the GI50 (MDA-MB-231) of the same compound?
**A.** 24 µM (inactive)

**Q.** And the GI50 (NCI-H226)?
**A.** 80.2 µM (inactive)

**Q.** What about the GI50 (EKVX) of the same compound?
**A.** 31.8 µM (inactive)

**Q.** And the GI50 (K562)?
**A.** 38.3 µM (inactive)

**Q.** And the GI50 (HT-29)?
**A.** 50.2 µM (inactive)

**Q.** What about the GI50 (UO-31) of the same compound?
**A.** 27.4 µM (inactive)

**Q.** And the GI50 (MCF7)?
**A.** 28.5 µM (inactive)

**Q.** What about the GI50 (NCI/ADR-RES) of the same compound?
**A.** 43.2 µM (inactive)

**Q.** And the GI50 (KM12)?
**A.** 32.8 µM (inactive)

**Q.** And the GI50 (RXF 393)?
**A.** 41.8 µM (inactive)

**Q.** What about the GI50 (PC-3) of the same compound?
**A.** 47.8 µM (inactive)

**Q.** And the GI50 (UACC-62)?
**A.** 46.9 µM (inactive)

**Q.** What about the GI50 (SK-MEL-28) of the same compound?
**A.** 26.5 µM (inactive)

**Q.** What about the GI50 (SR) of the same compound?
**A.** 31.8 µM (inactive)

**Q.** What about the GI50 (OVCAR-4) of the same compound?
**A.** 34 µM (inactive)

**Q.** And the GI50 (HOP-92)?
**A.** 27.9 µM (inactive)

**Q.** What about the GI50 (HCT-116) of the same compound?
**A.** 30.2 µM (inactive)

**Q.** What about the GI50 (MOLT-4) of the same compound?
**A.** 20.1 µM (inactive)

**Q.** What about the GI50 (SK-MEL-2) of the same compound?
**A.** 19.1 µM (inactive)

**Q.** What about the GI50 (CAKI-1) of the same compound?
**A.** 18.8 µM (inactive)

**Q.** What about the GI50 (BT-549) of the same compound?
**A.** 48.4 µM (inactive)

**Q.** And the GI50 (SF-295)?
**A.** 29.3 µM (inactive)

**Q.** And the GI50 (DU-145)?
**A.** 89.9 µM (inactive)

**Q.** And the GI50 (MDA-MB-435)?
**A.** 31.3 µM (inactive)

**Q.** And the GI50 (SW-620)?
**A.** 41.2 µM (inactive)

**Q.** And the GI50 (OVCAR-8)?
**A.** 59 µM (inactive)

**Q.** What about the GI50 (A549) of the same compound?
**A.** 67.8 µM (inactive)

**Q.** What about the GI50 (786-0) of the same compound?
**A.** 45.5 µM (inactive)

**Q.** What about the GI50 (MDA-N) of the same compound?
**A.** 34 µM (inactive)

**Q.** And the GI50 (HOP-62)?
**A.** 47.6 µM (inactive)

**Q.** Which results are given for `COc1ccc2c(c1)C(=O)CC(N)C2` (centres undefined)?
**A.** GI50 (NCI-H460): > 100 µM (inactive); GI50 (U-251): > 100 µM (inactive); GI50 (LOX IMVI): > 100 µM (inactive); GI50 (SK-MEL-5): > 100 µM (inactive); GI50 (SNB-75): 25.1 µM (inactive); GI50 (HCC 2998): 47.6 µM (inactive); GI50 (HL-60): 62.7 µM (inactive); GI50 (HCT-15): > 100 µM; GI50 (M14): > 100 µM (inactive); GI50 (SK-OV-3): > 100 µM (inactive); GI50 (IGROV-1): > 100 µM (inactive); GI50 (UACC-257): > 100 µM (inactive); GI50 (OVCAR-5): > 100 µM (inactive); GI50 (OVCAR-3): 88.5 µM (inactive); GI50 (SN12C): > 100 µM (inactive); GI50 (Hs-578T): 42.2 µM (inactive); GI50 (Malme-3M): > 100 µM (inactive); GI50 (RPMI-8226): > 100 µM (inactive); GI50 (NCI-H522): > 100 µM (inactive); GI50 (NCI-H23): > 100 µM (inactive); GI50 (SNB-19): > 100 µM (inactive); GI50 (T47D): > 100 µM (inactive); GI50 (TK-10): > 100 µM (inactive); GI50 (ACHN): > 100 µM (inactive); GI50 (COLO 205): > 100 µM (inactive); GI50 (SF-268): > 100 µM (inactive); GI50 (MDA-MB-231): > 100 µM (inactive); GI50 (NCI-H226): 67.8 µM (inactive); GI50 (EKVX): 57 µM (inactive); GI50 (K562): > 100 µM (inactive); GI50 (HT-29): > 100 µM (inactive); GI50 (UO-31): 40.6 µM (inactive); GI50 (MCF7): > 100 µM (inactive); GI50 (NCI/ADR-RES): > 100 µM (inactive); GI50 (KM12): > 100 µM (inactive); GI50 (RXF 393): > 100 µM (inactive); GI50 (PC-3): 42 µM (inactive); GI50 (UACC-62): 68.5 µM (inactive); GI50 (SK-MEL-28): > 100 µM (inactive); GI50 (SR): 55.7 µM (inactive); GI50 (OVCAR-4): > 100 µM (inactive); GI50 (HOP-92): > 100 µM (inactive); GI50 (CCRF-CEM): 64.9 µM (inactive); GI50 (HCT-116): > 100 µM (inactive); GI50 (MOLT-4): 19.5 µM (inactive); GI50 (SK-MEL-2): > 100 µM (inactive); GI50 (CAKI-1): > 100 µM (inactive); GI50 (BT-549): > 100 µM (inactive); GI50 (SF-295): > 100 µM (inactive); GI50 (DU-145): > 100 µM (inactive); GI50 (MDA-MB-435): > 100 µM (inactive); GI50 (SW-620): > 100 µM (inactive); GI50 (OVCAR-8): > 100 µM (inactive); GI50 (A549): > 100 µM (inactive); GI50 (786-0): > 100 µM (inactive); GI50 (MDA-N): > 100 µM (inactive); GI50 (HOP-62): > 100 µM (inactive)
